Data on eleven molecules can be found in patent US20180147196A1, “PYRIDIN-3-YL ACETIC ACID DERIVATIVES AS INHIBITORS OF HUMAN IMMUNODEFICIENCY VIRUS REPLICATION” (priority 2015, published 2018).

The subject of this test is NL-RLuc virus. Briefly: Inhibition of HIV replication (NL-RLuc virus in MT-2 cells, luciferase readout). The class given is cell-based. The settings on record: Human immunodeficiency virus 1, MT2, 120 h. The source says:
Inhibition of HIV replication: A recombinant NL-RLuc proviral clone was constructed in which a section of the nef gene from NL4-3 was replaced with the Renilla Luciferase gene. This virus is fully infectious and can undergo multiple cycles of replication in cell culture. In addition, the luciferous reporter provides a simple and easy method for quantitating the extent of virus growth and consequently, the antiviral activity of test compounds. The plasmid pNLRLuc contains the proviral NL-Rluc DNA cloned into pUC18 at the Pvull site. The NL-RLuc virus was prepared by transfection of 293T cells with the plasmid pNLRLuc. Transfections were performed using the LipofectAMINE PLUS kit from Invitrogen (Carlsbad, Calif.) according to the manufacturer and the virus generated was titered in MT-2 cells. For susceptibility analyses, the titrated virus was used to infect MT-2 cells in the presence of compound, and after 5 days of incubation, cells were processed and quantitated for virus growth by the amount of expressed luciferase. Assay media was RPMI 1640 supplemented with 10% heat inactivated fetal bovine serum (FBS), 100 units/ml penicillin G/100 units/ml streptomycin, 10 mM HEPES buffer pH 7.55 and 2 mM L-glutamine. The results from at least 2 experiments were used to calculate the EC50 values. Luciferase was quantitated using the Dual Luciferase kit from Promega (Madison, Wis.). Susceptibility of viruses to compounds was determined by incubation in the presence of serial dilutions of the compound. The 50% effective concentration (EC50) was calculated by using the exponential form of the median effect equation where (Fa)=1/[1+(ED50/drug conc.)^m] (Johnson V A, Byington R T. Infectivity Assay. In Techniques in HIV Research. ed. Aldovini A, Walker BD. 71-76. New York: Stockton Press.1990). Activity equal to A refers to a compound having an EC50<100 nM, while B and C denote compounds having an EC50 between 100 nM and 1 uM (B) or >1 uM (C).

Read-outs that look alike come from different tables or passages of the source. A value given as a limit tells only on which side of the number the result lay.

In the case of `COC(=O)NC/C=C/c1c(C)nc(C)c([C@H](OC(C)(C)C)C(=O)O)c1N1CCC(C)(C)CC1` [Example 18, (S,E)-2-(tert-Butoxy)-2-(4-(4,4-dimethylpiperidin-1-yl)-5-(3-((methoxycarbonyl)amino)prop-1-en-1-yl)-2,6-dimethylpyridin-3-yl)acetic acid], the EC50 (read-out: Activity) was in the range of 0.1 to 1 µM.

Turning to `Cc1nc(C)c([C@H](OC(C)(C)C)C(=O)O)c(N2CCC(C)(C)CC2)c1C1=CCN(C(=O)OC(C)(C)C)CC1` [Example 16, (S)-2-(tert-Butoxy)-2-(1′-(tert-butoxycarbonyl)-4-(4,4-dimethylpiperidin-1-yl)-2,6-dimethyl-1′,2′,3′,6′-tetrahydro-[3,4′-bipyridin]-5-yl)acetic acid], the EC50 (read-out: Activity) was under 0.1 µM.

Regarding `Cc1nc(C)c([C@H](OC(C)(C)C)C(=O)O)c(N2CCC(C)(C)CC2)c1/C=C/c1ccc(-c2ccccc2)cc1` [Example 5, (S,E)-2-(5-(2-([1,1′-Biphenyl]-4-yl)vinyl)-4-(4,4-dimethylpiperidin-1-yl)-2,6-dimethylpyridin-3-yl)-2-(tert-butoxy)acetic acid], the EC50 reads like this: (read-out: Activity) under 0.1 µM; (read-out: EC50 μM) 0.035 µM.

For the molecule `Cc1nc(C)c([C@H](OC(C)(C)C)C(=O)O)c(N2CCC(C)(C)CC2)c1/C=C/CNC(=O)OCc1ccccc1` [Example 17, (S,E)-2-(5-(3-(((Benzyloxy)carbonyl)amino)prop-1-en-1-yl)-4-(4,4-dimethylpiperidin-1-yl)-2,6-dimethylpyridin-3-yl)-2-(tert-butoxy)acetic acid], the EC50 (read-out: Activity) is under 0.1 µM.

Regarding `Cc1nc(C)c([C@H](OC(C)(C)C)C(=O)O)c(N2CCC(C)(C)CC2)c1/C=C/c1ccccc1` [Example 11, (S,E)-2-(tert-Butoxy)-2-(4-(4,4-dimethylpiperidin-1-yl)-2,6-dimethyl-5-styrylpyridin-3-yl)acetic acid], the EC50 is, setting by setting: (read-out: Activity) under 0.1 µM; (read-out: EC50 μM) 0.027 µM.

As for `C/C=C/c1c(C)nc(C)c([C@H](OC(C)(C)C)C(=O)O)c1N1CCC(C)(C)CC1` [Example 30, (S,E)-2-(tert-Butoxy)-2-(4-(4,4-dimethylpiperidin-1-yl)-2,6-dimethyl-5-(prop-1-en-1-yl)pyridin-3-yl)acetic acid], the EC50 (read-out: Activity) was in the range of 0.1 to 1 µM.

Consider `Cc1ncc(C2=CCN(CCCc3ccc(F)cc3)CC2)c(N2CCC(C)(C)CC2)c1[C@H](OC(C)(C)C)C(=O)O` [Example 32, (S)-2-(tert-Butoxy)-2-(4-(4,4-dimethylpiperidin-1-yl)-1′-(3-(4-fluorophenyl)propyl)-6-methyl-1′,2′,3′,6′-tetrahydro-[3,4′-bipyridin]-5-yl)acetic acid], for which the EC50 runs as follows: (read-out: Activity) under 0.1 µM; (read-out: EC50 μM) 0.002 µM.

As to `Cc1nc(C)c([C@H](OC(C)(C)C)C(=O)O)c(N2CCC(C)(C)CC2)c1CCc1ccc(F)cc1` [Example 4, (S)-2-(tert-Butoxy)-2-(4-(4,4-dimethylpiperidin-1-yl)-5-(4-fluorophenethyl)-2,6-dimethylpyridin-3-yl)acetic acid], for the setting “read-out: Activity”, the EC50 was under 0.1 µM.

For `Cc1nc(C)c([C@H](OC(C)(C)C)C(=O)O)c(N2CCC(C)(C)CC2)c1C1=CCN(CCCc2ccc(F)cc2)CC1` [Example 23, (S)-2-(tert-Butoxy)-2-(4-(4,4-dimethylpiperidin-1-yl)-1′-(3-(4-fluorophenyl)propyl)-2,6-dimethyl-1′,2′,3′,6′-tetrahydro-[3,4′-bipyridin]-5-yl)acetic acid], the EC50 (read-out: Activity) was under 0.1 µM.

As to `COC(=O)N1CC=C(c2c(C)nc(C)c([C@H](OC(C)(C)C)C(=O)O)c2N2CCC(C)(C)CC2)CC1` [Example 20, (S)-2-(tert-Butoxy)-2-(4-(4,4-dimethylpiperidin-1-yl)-1′-(methoxycarbonyl)-2,6-dimethyl-1′,2′,3′,6′-tetrahydro-[3,4′-bipyridin]-5-yl)acetic acid], the EC50 (read-out: Activity) lay in the range of 0.1 to 1 µM.

`Cc1nc(C)c([C@H](OC(C)(C)C)C(=O)O)c(N2CCC(C)(C)CC2)c1C1=CCCCC1` [Example 14, (S)-2-(tert-Butoxy)-2-(5-(cyclohex-1-en-1-yl)-4-(4,4-dimethylpiperidin-1-yl)-2,6-dimethylpyridin-3-yl)acetic acid]: the EC50 was 0.1 to 1 µM (read-out: Activity) and 0.136 µM (read-out: EC50 μM).
